From patent US6300501A, “Histidine-(N-benzyl glycinamide) inhibitors of protein farnesyl transferase” (Warner-Lambert Company, priority 1998, dated 2001)
Where two headings read alike, the source gives them in different places.

What was measured:
[1] = biological target: T1, SF9 affinity purified rat farnesyl protein transferase (Rattus norvegicus, UniProt Q02293+Q04631); experiment: PFT inhibitory activity (radiolabeled farnesyl pyrophosphate, streptavidin bead assay); assay type: biochemical
T1 construct: made in house; host or cells: Sf9 insect cells (baculovirus system inferred from b7)
Protocol: The protein:farnesyl transferase (PFT) or farnesyl protein transferase (FPT) inhibitory activity of compounds of the present invention were assayed in HEPES buffer (pH 7.4) containing 5 mM potassium phosphate and 20 μM ZnCl2. The solution also contained 5 mM DTT (dithiothreitol), 5 mM MgCl2, and 0.1% PEG 8000. Assays were performed in 96 well plates (Wallec) and employed solutions composed of varying concentrations of a compound of the present invention in 100% DMSO (dimethylsulfoxide). Upon addition of both substrates, radiolabeled farnesyl pyrophosphate ([1^3 H], specific activity 15-30 Ci/mmol, final concentration 134 nM) and (biotinyl)-Ahe-Thr-Lys-Cys-Val-Ile-Met ([3aS[3a alpha, 4 beta, 6a alpha]-hexahydro-2-oxo-1H-thieno[3,4-d]imidazole-5-pentanoic acid]-[7-aminoheptanoic acid]-Thr-Lys-Cys-Val-Ile-Met) (Ahe is 7-aminoheptanoic acid, Thr is threonine, Lys is lysine, Cys is cysteine, Val is valine, Ile is isoleucine and Met is methionine) (final concentration 0.2 μM), the enzyme reaction was started by addition of SF9 affinity purified rat farnesyl protein transferase. After incubation at 30° C. for 30 minutes, the reaction was terminated by diluting the reaction 2.5-fold with a stop buffer containing 1.5 M magnesium acetate, 0.2 M H3 PO4, 0.5% BSA (bovine serum albumin), and strepavidin beads (Amersham) at a concentration of 1.3 mg/mL. After allowing the plate to settle for 30 minutes at room temperature, radioactivity was quantitated on a microBeta counter (Model 1450, Wallec). The assay was also carried out without 5 mM potassium phosphate.

[2] = system: ras farnesylation in ras-transformed cells; experiment: Gel shift assay; assay type: cell-based; details: ras-transformed cells, 18-hour incubation; read-out: Gel Shift (μM) MED (minimal effective dose to observe inhibition of ras farnesylation)
Protocol: Twenty-four hours after planting 2×10^6 ras-transformed cells per treatment condition, the farnesylation inhibitor is added at varying concentrations. Following an 18-hour incubation period, cells are lysed in phosphate-buffered saline containing 1% Triton X-100, 0.5% sodium deoxycholate, and 0.1% SDS (sodium dodecyl sulfate), pH 7.4 in the presence of several protease inhibitors (PMSF (phenylmethylsulfonylfluoride), antipain, leupeptin, pepstatin A, and aprotinin all at 1 μg/mL). Ras protein is immunoprecipitated from the supernatants by the addition of 3 μg v-H-ras Ab-2 (Y13-259 antibody from Oncogene Science). After overnight immunoprecipitation, 30 μL of a 50% protein G-Sepharose slurry (Pharmacia) is added followed by 45-minute incubation. Pellets are resuspended in 2× tris-glycine loading buffer (Novex) containing 5% β-mercaptoethanol and then denatured by 5 minutes boiling prior to electrophoresis on 14% Tris-glycine SDS gels. Using Western transfer techniques, proteins are transferred to nitrocellulose membranes followed by blocking in blocking buffer. Upon overnight incubation with primary antibody (pan-ras Ab-2 from Oncogene Science), an antimouse HRP (horse radish peroxidase) conjugate secondary antibody (Amersham) is employed for detection of the ras protein. Blots are developed using ECL(enhanced chemiluminescence) techniques (Amersham).

[3] = system: H61 cells: NIH transformed 3T3 H-ras cells; experiment: Clonogenic assay (6 well plates, soft agar); assay type: cell-based; details: 312 h, colonies counted after Day 13, read-out: Clonogenic Assay IC50
Protocol: Clonoaenic Assay (6 well lates)
Sometime previous to setting up an actual test:
1. Make up 1.5% Bacto Agar in Milli-Q water and autoclave.
2. Make up 500 mL 2× DMEM-HG without phenol red by combining the following:
1 bottle DMEM base powder (Sigma D-5030)
Adjust pH to 7.1 with HCL; filter sterilize.
1. Set up makeshift water bath (beaker of water with thermometer, on hot plate) in the hood. Keep water temperature between 37° C. to 43° C.
2. […] 1.5% Bacto Agar for approximately 2 minutes on high, or until completely melted. Then let it cool somewhat before using it. (You can keep it from resolidifying by setting the bottle on the hot plate.) […]
3. Bottom Layer (0.6% agar) Top Layer (0.3% agar)
20% calf serum 20% calf serum
40% Bacto Agar (1.5%) 20% Bacto Agar (1.5%)
Depending on the volume of each layer needed, use either 50 mL conical tubes or 200 mL turnip tubes which can be floated in the "water bath".
4. Add 1 mL of bottom layer agar/medium to each well: deliver 1 mL warm agar/medium to a well; then using the tip of the pipet, spread the agar/medium around to completely cover the bottom. Repeat with next well.
5. Allow the plates to set at room temperature for about 5 minutes until the bottom layer solidifies.
6. Label sterile Falcon 2054 (12×75 mm) tubes and add appropriate volume of drug solutions into them.
7. Aliquot 4 AL of DMSO or drug solution per 1 mL of agar/medium to appropriate tubes; then add the agar/medium/cells to each tube. Always add 1 mL more than will actually be needed. Mix up and down in the pipet (gently); then deliver 1 mL to the center of each well. The upper layer is less viscous, so it will generally spread out over the bottom layer unaided. If necessary, rotate the plane of the plate gently to spread the top layer evenly over the bottom layer.
8. Let plates set for 5 or 10 minutes at room temperature to solidify, then put into 5% CO2, 37° C. incubator.
9. On Day 13, add 0.5 mL of INT (tetrazolium 1 mg/mL in Milli-Q H2 O, filter sterilized) and return plates to incubator.

[4] = HEPES buffer pH 7.4, without 5 mM potassium phosphate, read-out: IC50 (μM) Hepes
[5] = HEPES buffer pH 7.4 containing 5 mM potassium phosphate, read-out: IC50 (μM) 5 mM K3 PO4 -2

T1 sequence (Q02293 whole entry, one chain of several): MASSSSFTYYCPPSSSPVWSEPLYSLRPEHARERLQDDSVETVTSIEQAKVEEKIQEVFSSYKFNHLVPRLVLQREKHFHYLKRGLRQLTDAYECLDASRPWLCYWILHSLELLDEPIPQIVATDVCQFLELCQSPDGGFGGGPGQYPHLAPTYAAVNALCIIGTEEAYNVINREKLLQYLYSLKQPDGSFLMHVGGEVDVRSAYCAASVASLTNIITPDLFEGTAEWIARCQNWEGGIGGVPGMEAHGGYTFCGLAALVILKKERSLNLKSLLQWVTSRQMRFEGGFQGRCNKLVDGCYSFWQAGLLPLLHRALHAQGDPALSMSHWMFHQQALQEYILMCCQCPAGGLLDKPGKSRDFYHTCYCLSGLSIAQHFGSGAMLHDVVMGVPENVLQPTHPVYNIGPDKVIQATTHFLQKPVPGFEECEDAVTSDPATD

Molecule: CC(C)(CNC(=O)CN(Cc1cccnc1)C(=O)[C@H](Cc1c[nH]cn1)NC(=O)OCc1ccccc1)c1ccccc1 [Example 39, (S)-(2-(1H-Imidazole-4-yl)-1-{[(2-methyl-2-phenyl-propylcarbamoyl)-methyl]-pyridin-3-ylmethyl-carbamoyl}-ethyl)-carbamic Acid Benzyl Ester]
- IC50 [1, 4]: 9.5 µM
- IC50 [1, 5]: 0.1 µM
- minimal effective concentration [2]: > 0.2 µM
- IC50 [3]: > 1000 nM

Molecule: CC(C(=O)NCC(C)(C)c1ccccc1)N(Cc1ccc(Cl)cc1)C(=O)[C@H](Cc1cnc[nH]1)NC(=O)OCc1ccccc1 (stereo partly drawn) [Example 55, (S)-[1-{(4-Chloro-benzyl)-[1-(2-methyl-2-phenyl-propylcarbamoyl)-ethyl]-carbamoyl}-2-(3H-imidazole-4-yl)-ethyl]-carbamic Acid Benzyl Ester]
- IC50 [1, 4]: 0.86 µM
- IC50 [1, 5]: 0.014 µM
- minimal effective concentration [2]: 0.05 µM

Molecule: CC(CNC(=O)CN(Cc1ccc(OCc2ccccc2)cc1)C(=O)[C@H](Cc1c[nH]cn1)NC(=O)NCc1ccccc1)c1ccccc1 (stereo partly drawn) [Example 26, (S)-N-(4-Benzyloxy-benzyl)-2-(3-benzyl-ureido)-3-(1H-imidazole-4-yl)-N-[(2-phenyl-propylcarbamoyl)-methyl]-propionamide]
- IC50 [1, 4]: 0.15 µM
- IC50 [1, 5]: 0.009 µM

Molecule: CC(CNC(=O)CN(Cc1cccc2ccccc12)C(=O)[C@H](Cc1c[nH]cn1)NC(=O)OCc1ccccc1)c1ccccc1 (stereo partly drawn) [Example 37, (S)-(2-(1H-Imidazole-4-yl)-1-{naththalen-1-ylmethyl-[(2-phenyl-propylcarbamoyl)-methyl]-carbamoyl}-ethyl)-carbamic Acid Benzyl Ester]
- IC50 [1, 4]: 0.92 µM
- IC50 [1, 5]: 0.026 µM
- minimal effective concentration [2]: ≥ 0.2 µM

Molecule: CC(C)CN(CC(=O)NCC(C)c1ccccc1)C(=O)[C@H](Cc1c[nH]cn1)NC(=O)OCc1ccccc1 (stereo partly drawn) [Example 62, (S)-(2-(1H-Imidazol-4-yl)-1-{isobutyl-[(2-phenyl-propylcarbamoyl)-methyl]-carbamoyl}-ethyl)-carbamic Acid Benzyl Ester]
- IC50 [1, 4]: 2.6 µM
- IC50 [1, 5]: 0.029 µM

Molecule: [1-{Cyclohexylmethyl-[(2-phenyl-propylcarbamoyl)-methyl]-carbamoyl}-2-(3H-imidazole-4-yl)-ethyl]-carbamic Acid Benzyl Ester [Example 61]
- IC50 [1, 4]: 0.66 µM
- IC50 [1, 5]: 0.018 µM
- minimal effective concentration [2]: 0.01 µM

Molecule: CC(C)(CNC(=O)CN(Cc1ccccc1OCc1ccncc1)C(=O)[C@H](Cc1c[nH]cn1)NC(=O)OCc1ccccc1)c1ccccc1 [Example 60, (S)-(2-(1H-Imidazole-4-yl)-1-{[(2-methyl-2-phenyl-propylcarbamoyl)-methyl]-[2-(pyridin-4-ylmethoxy)-benzyl]-carbamoyl}-ethyl)-carbamic Acid Benzyl Ester]
- IC50 [1, 4]: 0.14 µM
- IC50 [1, 5]: 0.016 µM
- minimal effective concentration [2]: 0.05 µM

Molecule: CC(CNC(=O)CN(Cc1ccc(Br)cc1)C(=O)[C@H](Cc1c[nH]cn1)NC(=O)OCc1ccccc1)c1ccccc1 (stereo partly drawn) [Example 29, (S)-[1-{(4-Bromo-benzyl)-[(2-phenyl-propylcarbamoyl)-methyl]-carbamoyl}-2-(1H-imidazole-4-yl)-ethyl]-carbamic Acid Benzyl Ester]
- minimal effective concentration [2]: 0.1 µM
- IC50 [3]: > 1000 nM

Molecule: CC(C)(CNC(=O)CN(Cc1ccccn1)C(=O)[C@H](Cc1c[nH]cn1)NC(=O)OCc1ccccc1)c1ccccc1 [Example 46, (S)-(2-(1H-Imidazole-4-yl)-1-{[(2-methyl-2-phenyl-propylcarbamoyl)-methyl]-pyridin-2-ylmethyl-carbamoyl}-ethyl)-carbamic Acid Benzyl Ester]
- IC50 [1, 4]: 1.98 µM
- IC50 [1, 5]: 0.034 µM
- minimal effective concentration [2]: 1 µM

Molecule: Cc1ccc(CN(CC(=O)NCC(C)(C)c2ccccc2)C(=O)[C@H](Cc2c[nH]cn2)NC(=O)OCc2ccccc2)cc1 [Example 56, (S)-(2-(1H-Imidazole-4-yl)-1-{(4-methyl-benzyl)-[(2-methyl-2-phenyl-propylcarbamoyl)-methyl]-carbamoyl}-ethyl)-carbamic Acid Benzyl Ester]
- IC50 [1, 4]: 0.32 µM
- IC50 [1, 5]: 0.012 µM
- minimal effective concentration [2]: 0.05 µM

Molecule: CC(C)(CNC(=O)CN(Cc1ccc(OCc2ccccc2)cc1)C(=O)[C@H](Cc1c[nH]cn1)NC(=O)OCc1ccsc1)c1ccccc1 [Example 54, (S)-[1-{(4-Benzyloxy-benzyl)-[(2-methyl-2-henyl-propylcarbamoyl)-methyl]-carbamoyl}-2-(1H-imidazole-4-yl)-ethyl]-carbamic acid thiophen-3-ylmethyl Ester]
- IC50 [1, 4]: 0.2 µM
- IC50 [1, 5]: 0.0012 µM
- minimal effective concentration [2]: 0.2 µM

Molecule: CN(Cc1ccccc1)C(=O)N[C@@H](Cc1c[nH]cn1)C(=O)N(CC(=O)NCC(C)(C)c1ccccc1)Cc1ccc(Cl)cc1 [Example 58, (S)-2-(3-Benzyl-3-methyl-ureido)-N-(4-chloro-benzyl)-3-(1H-imidazole-4-yl)-N-[(2-methyl-2-phenyl-propylcarbamoyl)-methyl]-propionamide]
- IC50 [1, 4]: 0.029 µM
- IC50 [1, 5]: 0.005 µM
- minimal effective concentration [2]: 0.05 µM

Molecule: COc1cccc(CN(CC(=O)NCC(C)(C)c2ccccc2)C(=O)[C@H](Cc2c[nH]cn2)NC(=O)OCc2ccccc2)c1 [Example 59, (S)-(2-(1H-Imidazole-4-yl)-1-{(3-methoxy-benzyl)-[(2-methyl-2-phenyl-propylcarbamoyl)-methyl]-carbamoyl}-ethyl)-carbamic Acid Benzyl Ester]
- IC50 [1, 4]: 0.52 µM
- IC50 [1, 5]: 0.004 µM
- minimal effective concentration [2]: 0.05 µM

Molecule: CC(CNC(=O)CN(Cc1ccc(N(C)C)cc1)C(=O)[C@H](Cc1c[nH]cn1)NC(=O)OCc1ccccc1)c1ccccc1 (stereo partly drawn) [Example 48, (S)-[1-{(4-Dimethylamino-benzyl)-[(2-phenyl-propylcarbamoyl)-methyl]-carbamoyl}-2-(1H-imidazole-4-yl)-ethyl]-carbamic Acid Benzyl Ester]
- IC50 [1, 4]: 0.5 µM
- IC50 [1, 5]: 0.0029 µM
- minimal effective concentration [2]: 0.05 µM

Molecule: COc1ccccc1CN(CC(=O)NCC(C)(C)c1ccccc1)C(=O)[C@H](Cc1c[nH]cn1)NC(=O)OCc1ccccc1 [Example 57, (S)-(2-(1H-Imidazole-4-yl)-1-{(2-methoxy-benzyl)-[(2-methyl-2-phenyl-propylcarbamoyl)-methyl]-carbamoyl}-ethyl)-carbamic Acid Benzyl Ester]
- IC50 [1, 4]: 0.38 µM
- IC50 [1, 5]: 0.0052 µM
